Source: patent publication US8741940B2, “Microbicidal composition” (Rohm and Haas Company, priority 2005, dated 2014)
Where two headings read alike, the source gives them in different places.

Key:
Format in all cases: cell-based
Parameters in all cases: key to SI (synergy index): SI = Qa/QA + Qb/QB; >1 antagonism, lower SI = greater synergy
[1] = test system: Escherichia coli (E. coli—ATCC #8739); assay: Synergy test, microtiter plate high resolution MIC assay, bacterium in M9GY medium; conditions: for MIC: Escherichia coli
Description: (§1) When the sum of Qa/QA and Qb/QB is greater than one, antagonism is indicated. […] The lower the SI, the greater the synergy shown by that particular mixture. The minimum inhibitory concentration (MIC) of a microbicide is the lowest concentration tested under a specific set of conditions that prevents the growth of added microorganisms.
(§2) Synergy tests were conducted using standard microtiter plate assays with media designed for optimal growth of the test microorganism. Minimal salt medium supplemented with 0.2% glucose and 0.1% yeast extract (M9GY medium) was used for testing bacteria; Potato Dextrose Broth (PDB medium) was used for testing yeast and mold. In this method, a wide range of combinations of microbicides and other personal care raw materials was tested by conducting high resolution MIC assays in the presence of various concentrations of BBIT or MBIT. High resolution MICs were determined by adding varying amounts of microbicide to one column of a microtitre plate and doing subsequent […] dilutions using an automated liquid handling system to obtain a series of endpoints ranging from 2 ppm to 10,000 ppm active ingredient.
(§3) The bacteria were used at a concentration of about 5 ×10^6 bacteria per mL and the yeast and mold at 5×10^5 fungi per mL. These microorganisms are representative of natural contaminants in many consumer and industrial applications. […] (yeast and mold) or 30° C. (bacteria).
(§4) In each test, First Component (A) was BBIT and the Second Component (B) was the other commercial microbicide.
(§5) In each test, First Component (A) was MBIT and the Second Component (B) was the other commercial microbicide.

[2] = test system: Aspergillus niger (A. niger—ATCC 16404); assay: Synergy test, microtiter plate high resolution MIC assay, mold in PDB medium; conditions: for MIC: Aspergillus niger
Description: as §1, §2, §3, §4, §5

[3] = test system: Candida albicans (C. albicans—ATCC 10231); assay: Synergy test, microtiter plate high resolution MIC assay, yeast in PDB medium; conditions: for MIC: Candida albicans
Description: as §1, §2, §3, §4, §5

[4] = ATCC8739, E. coli 8739, M9GY, 24 hours, alone where Qa = 0, otherwise in the mixture, read-out: Qb (concentration of second component producing the end point, MIC)
[5] = ATCC16404, 168 h, A. niger 16404, PDB, 7 days, alone where Qa = 0, otherwise in the mixture, read-out: Qb (concentration of second component producing the end point, MIC)
[6] = C. albicans 10231, PDB, 24 hours
[7] = ATCC10231, C. albicans 10231, PDB, 24 hours, alone where Qa = 0, otherwise in the mixture, read-out: Qb (concentration of second component producing the end point, MIC)

SMILES: O=C(O)CN(CCN(CC(=O)O)CC(=O)O)CC(=O)O [Ethylenediamine tetraacetic acid]
- SI (synergy index) [1]: 1.00
- MIC ([1]; ATCC8739, 24 h, read-out: Qb (concentration of second component producing the end point, MIC)): 40000 µg/mL
- SI (synergy index) [2]: 1.00
- MIC ([2]; ATCC16404, 72 h, read-out: Qb (concentration of second component producing the end point, MIC)): 1600 µg/mL
- SI (synergy index) [3]: 1.00
- MIC ([3]; ATCC10231, 48 h, read-out: Qb (concentration of second component producing the end point, MIC)): 1000 µg/mL

SMILES: CCOC(=O)c1ccc(O)cc1 [Ethylparaben]
- SI (synergy index) ([1]; E. coli 8739, M9GY, 24 hours): 1.00
- MIC ([1]; ATCC8739, E. coli 8739, M9GY, 24 hours, 30° C., read-out: MIC of the component acting alone (QA / QB)): 2000 µg/mL
- MIC [1, 4]: 2000 µg/mL
- SI (synergy index) ([2]; A. niger 16404, PDB, 7 days): 1.00
- MIC ([2]; ATCC16404, 168 h, A. niger 16404, PDB, 7 days, 25° C., read-out: MIC of the component acting alone (QA / QB)): 800 µg/mL
- MIC [2, 5]: 800 µg/mL
- SI (synergy index) [3, 6]: 1.00
- MIC ([3]; ATCC10231, C. albicans 10231, PDB, 24 hours, 25° C., read-out: MIC of the component acting alone (QA / QB)): 800 µg/mL
- MIC [3, 7]: 2000 µg/mL

SMILES: CCCCC(CC)CN1CN(CC(CC)CCCC)CC(C)(N)C1 (stereo not drawn) [Hexetidine]
- SI (synergy index) ([1]; E. coli 8739, M9GY, 72 hours): 1.00
- SI ([1]; E. coli 8739 - M9GY, 72 hours, BBIT + hexetidine): 1.00
- Qb (Second Component B = Hexetidine) ([1]; E. coli 8739 - M9GY, 72 hours, hexetidine alone (Qa 0) or in mixture with BBIT): 200
- MIC ([1]; ATCC8739, E. coli 8739, M9GY, 72 hours, alone where Qa = 0, otherwise in the mixture, read-out: Qb (concentration of second component producing the end point, MIC)): 80 µg/mL
- SI (synergy index) ([2]; A. niger 16404, PDB, 3 days): 1.00
- SI ([2]; A. niger 16404 - PDB, 4 days, BBIT + hexetidine): 1.00
- Qb (Second Component B = Hexetidine) ([2]; A. niger 16404 - PDB, 4 days, hexetidine alone (Qa 0) or in mixture with BBIT): 100
- MIC ([2]; ATCC16404, 72 h, A. niger 16404, PDB, 3 days, alone where Qa = 0, otherwise in the mixture, read-out: Qb (concentration of second component producing the end point, MIC)): 200 µg/mL
- SI (synergy index) ([3]; C. albicans 10231, PDB, 72 hours): 1.00
- SI ([3]; C. albicans 10231 - PDB, 72 hours, BBIT + hexetidine): 1.00
- Qb (Second Component B = Hexetidine) ([3]; C. albicans 10231 - PDB, 72 hours, hexetidine alone (Qa 0) or in mixture with BBIT): 100
- MIC ([3]; ATCC10231, C. albicans 10231, PDB, 72 hours, alone where Qa = 0, otherwise in the mixture, read-out: Qb (concentration of second component producing the end point, MIC)): 80 µg/mL

SMILES: COC(=O)c1ccc(O)cc1 [Methylparaben]
- SI (synergy index) ([1]; E. coli 8739, M9GY, 24 hours): 1.00
- SI ([1]; E. coli 8739 - M9GY, 72 hours, BBIT with Methylparaben): 1.00
- MIC [1, 4]: 2000 µg/mL
- SI (synergy index) ([2]; A. niger 16404, PDB, 7 days): 1.00
- SI ([2]; A. niger 16404 - PDB, 3 days, BBIT with Methylparaben): 1.00
- MIC [2, 5]: 800 µg/mL
- SI (synergy index) ([3]; C. albicans 10231, PDB, 48 hours): 1.00
- SI ([3]; C. albicans 10231 - PDB, 24 hours, BBIT with Methylparaben): 1.00
- MIC ([3]; ATCC10231, C. albicans 10231, PDB, 48 hours, alone where Qa = 0, otherwise in the mixture, read-out: Qb (concentration of second component producing the end point, MIC)): 2000 µg/mL

SMILES: C/C=C/C=C/C(=O)[O-].[K+] [Potassium sorbate]
- SI [1]: 1.00
- SI (synergy index) [1]: 1.00
- MIC ([1]; ATCC8739, 48 h, read-out: Qb (concentration of second component producing the end point, MIC)): 20000 µg/mL
- SI [2]: 1.00
- SI (synergy index) [2]: 1.00
- MIC ([2]; ATCC16404, 96 h, read-out: Qb (concentration of second component producing the end point, MIC)): 10000 µg/mL
- SI [3]: 1.00
- SI (synergy index) [3]: 1.00
- MIC ([3]; ATCC10231, 24 h, read-out: Qb (concentration of second component producing the end point, MIC)): 400 µg/mL

SMILES: CCCOC(=O)c1ccc(O)cc1 [Propylparaben]
- SI (synergy index) ([1]; E. coli 8739, M9GY, 48 hours): 1.00
- SI ([1]; E. coli 8739 - M9GY, 24 hours, BBIT with Propylparaben): 1.00
- MIC ([1]; ATCC8739, E. coli 8739, M9GY, 48 hours, alone where Qa = 0, otherwise in the mixture, read-out: Qb (concentration of second component producing the end point, MIC)): 4000 µg/mL
- SI (synergy index) ([2]; A. niger 16404, PDB, 7 days): 1.00
- SI ([2]; A. niger 16404 - PDB, 7 days, BBIT with Propylparaben): 1.00
- MIC [2, 5]: 2000 µg/mL
- SI (synergy index) [3, 6]: 1.00
- SI ([3]; C. albicans 10231 - PDB, 24 hours, BBIT with Propylparaben): 1.00
- MIC [3, 7]: 2000 µg/mL
